pIC50: −log10 of the molar value.
target: human RAF1 (Homo sapiens (Human), UniProt P04049); assay: Protein kinase assay (radiometric 33P-ATP, MEK1 (K97R) substrate); format: biochemical; conditions: human MEK1 (K97R) substrate 3 micromolar, ATP 10 micromolar, 10-dose IC50 mode; read-out: RAF-1 IC50
Procedure: Protein kinase assay: Assay platform was used to measure kinase/inhibitor interactions as described previously (Anastassiadis et al., 2011). In brief, for each reaction, kinase and substrate were mixed in a buffer containing 20 mM HEPES (pH 7.5), 10 mM MgCl2, 1 mM EGTA, 0.02% Brij35, 0.02 mg/mL BSA, 0.1 mM Na3VO4, 2 mM DTT, and 1% DMSO. All compounds were solubilized in DMSO. Compounds were then added to each reaction mixture via acoustic dispense using an ECHO 550 nanoliter dispenser. For human RAF1 testing, human MEK1 (K97R) was used as a substrate at a concentration of 3 micromolar, with a final ATP concentration of 10 micromolar. For human BRAF testing, human MEK1 (K97R) was used as a substrate at 1 micromolar concentration, with a final ATP concentration of 25 micromolar. […] After a 20-min incubation, ATP (Sigma-Aldrich, St. Louis, Mo. 63178) and [g33P] ATP (specific activity 10 microCi/microliter) purchased at PerkinElmer (Boston, Mass., 02118 Cat #BLU 003H250UC) were added at a final total concentration of 10 mM. Reactions were carried out at room temperature for 2 hr and spotted onto P81 ionexchange cellulose chromatography paper (Reaction Biology). Filter paper was washed in 0.75% phosphoric acid to remove unincorporated ATP. The percent remaining kinase activity relative to a vehicle-containing (DMSO) kinase reaction was calculated for each kinase/inhibitor pair. IC50 values were calculated using Prism 5 (GraphPad).

human RAF1, sequence (P04049 whole entry): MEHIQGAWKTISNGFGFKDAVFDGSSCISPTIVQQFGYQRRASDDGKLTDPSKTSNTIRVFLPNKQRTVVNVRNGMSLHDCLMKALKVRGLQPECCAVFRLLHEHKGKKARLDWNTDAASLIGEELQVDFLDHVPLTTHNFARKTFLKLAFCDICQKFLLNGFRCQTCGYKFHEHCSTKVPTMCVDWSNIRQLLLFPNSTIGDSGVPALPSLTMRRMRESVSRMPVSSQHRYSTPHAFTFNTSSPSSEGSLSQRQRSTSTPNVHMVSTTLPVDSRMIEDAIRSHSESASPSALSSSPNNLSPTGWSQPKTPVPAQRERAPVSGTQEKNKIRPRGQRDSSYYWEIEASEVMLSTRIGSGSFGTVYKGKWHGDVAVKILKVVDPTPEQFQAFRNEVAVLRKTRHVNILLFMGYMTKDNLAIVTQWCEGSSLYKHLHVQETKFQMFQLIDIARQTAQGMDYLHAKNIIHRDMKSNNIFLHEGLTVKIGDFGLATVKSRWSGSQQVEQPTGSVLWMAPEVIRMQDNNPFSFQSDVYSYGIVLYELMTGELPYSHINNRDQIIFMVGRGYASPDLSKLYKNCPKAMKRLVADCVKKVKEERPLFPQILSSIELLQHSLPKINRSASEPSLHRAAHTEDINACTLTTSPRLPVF

Row | SMILES | pIC50
1 | CNc1ncc2cc(-c3cc(NC(=O)c4cc(C(F)(F)F)ccn4)ccc3C)c(C)nc2n1 [Example 27] | ≥ 8.00
2 | CNc1ncc2cc(-c3cc(NC(=O)c4cccc(C(F)(F)F)c4)ccc3C)c(C)nc2n1 [Example 29, N-(4-methyl-3-(7-methyl-2-(methylamino)pyrido[2,3-d]pyrimidin-6-yl)phenyl)-3-(trifluoromethyl)benzamide] | ≥ 8.00
3 | CNc1ncc2cc(-c3cc(NC(=O)N4CC[C@H](CC(F)(F)F)C4)c(F)cc3C)cnc2n1 [Example 30, (R)-N-(2-fluoro-4-methyl-5-(2-(methylamino)pyrido[2,3-d]pyrimidin-6-yl)phenyl)-3-(2,2,2-trifluoroethyl)pyrrolidine-1-carboxamide] | ≥ 8.00
4 | CNc1ncc2cc(-c3cc(NC(=O)N4CC[C@@H](CC(F)(F)F)C4)c(F)cc3C)cnc2n1 [Example 31, (S)-N-(2-fluoro-4-methyl-5-(2-(methylamino)pyrido[2,3-d]pyrimidin-6-yl)phenyl)-3-(2,2,2-trifluoroethyl)pyrrolidine-1-carboxamide] | ≥ 8.00
5 | CNc1ncc2cc(-c3cc(NC(=O)c4cncc(C(F)(F)F)c4)ccc3C)c(C)nc2n1 [Example 32, N-(4-methyl-3-(7-methyl-2-(methylamino)pyrido[2,3-d]pyrimidin-6-yl)phenyl)-5-(trifluoromethyl)nicotinamide] | ≥ 8.00
6 | CNc1ncc2cc(-c3cc(NC(=O)c4ccnc(C(F)(F)F)c4Cl)ccc3C)c(C)nc2n1 [Example 33, 3-chloro-N-(4-methyl-3-(7-methyl-2-(methylamino)pyrido[2,3-d]pyrimidin-6-yl)phenyl)-2-(trifluoromethyl)isonicotinamide] | ≥ 8.00
7 | CNc1ncc2cc(-c3cc(NC(=O)c4cc(C)nc(C(F)(F)F)c4)ccc3C)c(C)nc2n1 [Example 34, 2-methyl-N-(4-methyl-3-(7-methyl-2-(methylamino)pyrido[2,3-d]pyrimidin-6-yl)phenyl)-6-(trifluoromethyl)isonicotinamide] | ≥ 8.00
8 | CCNc1ncc2cc(-c3cc(NC(=O)c4ccnc(C(F)(F)F)c4)ccc3C)c(C)nc2n1 [Example 35, N-(3-(2-(ethylamino)-7-methylpyrido[2,3-d]pyrimidin-6-yl)-4-methylphenyl)-2-(trifluoromethyl)isonicotinamide] | ≥ 8.00
9 | CCc1nc2nc(NC)ncc2cc1-c1cc(NC(=O)c2ccnc(C(F)(F)F)c2)ccc1C [Example 36, N-(3-(7-ethyl-2-(methylamino)pyrido[2,3-d]pyrimidin-6-yl)-4-methylphenyl)-2-(trifluoromethyl)isonicotinamide] | ≥ 8.00
10 | Cc1ccc(NC(=O)c2ccnc(C(F)(F)F)c2)cc1-c1cc2cnc(NC3CC3)nc2nc1C [Example 37, N-(3-(2-(cyclopropylamino)-7-methylpyrido[2,3-d]pyrimidin-6-yl)-4-methylphenyl)-2-(trifluoromethyl)isonicotinamide] | ≥ 8.00
11 | Cc1ccc(NC(=O)c2ccnc(C(F)(F)F)c2)cc1-c1cc2cnc(NCCN3CCOCC3)nc2nc1C [Example 38, N-(4-methyl-3-(7-methyl-2-((2-morpholinoethyl)amino)pyrido[2,3-d]pyrimidin-6-yl)phenyl)-2-(trifluoromethyl)isonicotinamide] | ≥ 8.00
12 | Cc1ccc(NC(=O)c2ccnc(C(F)(F)F)c2)cc1-c1cc2cnc(NCCN3CCCC3)nc2nc1C [Example 39, N-(4-methyl-3-(7-methyl-2-((2-(pyrrolidin-1-yl)ethyl)amino)pyrido[2,3-d]pyrimidin-6-yl)phenyl)-2-(trifluoromethyl)isonicotinamide] | ≥ 8.00

same assay, conditions: read-out: RAF-1 IC50

Row | SMILES | pIC50
13 | CNc1ncc2cc(-c3cc(NC(=O)N4CCO[C@@H](CC(F)(F)F)C4)c(F)cc3C)c(C)nc2n1 [Example 26, (S)-N-(2-fluoro-4-methyl-5-(7-methyl-2-(methylamino)pyrido[2,3-d]pyrimidin-6-yl)phenyl)-2-(2,2,2-trifluoroethyl)morpholine-4-carboxamide] | ≥ 8.00

— patent publication US10927111B2, “Inhibitors of RAF kinases” (Kinnate Biopharma Inc., priority 2019, dated 2021)
